Where two headings read alike, the source gives them in different places.
What was measured:
PDE4B1 = biological target: T1, PDE4B1 (Homo sapiens, UniProt Q07343); assay: PDE4 activity inhibition assay, PDE4B1; assay type: biochemical; conditions: FAM-cAMP substrate, 30 minutes at room temperature
T1 construct: purchased BPS 60041
Method: (§1) The IC50 value of the inhibitory effect of the compound on PDE4A1A, PDE4B1 and PDE4D3 was tested.
(§2) Positive compound: Trequinsin (Sigma, Cat. No. T2057).
(§3) Equipment: Wallac Victor Multi-label counter (Perkin Elmer).
(§4) I. Preparing 1× reaction liquid and termination liquid;
(§5) II. PDE enzymatic reaction; • 1) The PDE was dissolved in 1× reaction solution to form 2× enzyme solution. • 2) FAM-cAMP was dissolved in 1× reaction solution to form 2× substrate solution. • 3) Echo 550 was used to transfer the corresponding volume of the compound in DMSO solution to the reaction plate. • 4) 2× enzyme solution was added into the corresponding well of the reaction plate and incubated with the compound solution at room temperature for 15 minutes. • 5) 2× substrate solution was added into the corresponding well of the reaction plate to initiate the reaction. • 6) Reaction plate was incubated at room temperature for 30 minutes and terminated by adding termination liquid, then incubated at room temperature for 60 minutes.
(§6) The inhibition rate was calculated by Excel; IC50 was calculated by GraphPad Prism.

[1] = PK parameter test in SD rats; assay type: in vivo, Sprague-Dawley rats; conditions: male SD rats; for Tmax / AUC / half-life: Sprague-Dawley, rat, plasma; for F: po 10 mg/kg vs iv 3 mg/kg
Method: Test compounds were administered intravenously or intragastrically singly to SD rats.
Blood samples were collected at different time points. LC-MS/MS was used to determine the concentration of the test compounds in rat plasma after administration of tested compounds and calculate the relevant PK parameters.
The test compounds are calculated based on free radicals and are converted only by purity.
A suitable amount of the test compound was added 5% DMSO+95% HP-beta-CD (20%) to prepare a solution of 0.6 mg/mL for intravenous administration.
A suitable amount of the test compound was added 5% DMSO+95% HP-beta-CD (20%) to prepare a solution of 1 mg/mL for intragastrical administration.
Male Sprague-Dawley rats were purchased from Shanghai Xipuer-Bikai Laboratory Animal Co., Ltd. There were 3 rats in each group. One group was used as control to collect blank plasma. The other groups were given each test compound by intravenous injection (the dose was 3 mg/kg) or intragastrical administration (the dose was 10 mg/kg). Heparin sodium was used for anticoagulation. Analyze the concentration of the test compound in the blood sample.
Abrosia for 10-14 hours before oral administration of the test compounds and resume feeding 4 hours after oral administration of the test compounds.
The time points of blood sample collection were: intravenous injection: before administration and at 0.083 hour, 0.25 hour, 0.5 hour, 1 hour, 2 hour, 4 hour, 6 hour, 8 hour, 24 hour after administration; oral administration: before administration and at 0.25 hour, 0.5 hour, 1 hour, 2 hour, 4 hour, 6 hour, 8 hour, 24 hour after administration. Blood samples were collected through jugular vein puncture. About 0.25 mL blood was collected for each sample. Heparin sodium was used for anticoagulation and the samples were placed on ice after collection. Blood samples were placed on ice after collection, and plasma was separated by centrifugation (centrifugation condition: 8000 rpm, 6 min, 2-8° C.). The collected plasma was stored at −80° C. before analysis.
50 μL plasma sample was added into a 1.5 mL centrifugal tube, and 250 μL internal standard solution (the same volume of methanol was added to blank sample instead of internal standard) was added to the sample. The sample was mixed in a whirlpool and centrifuged for 5 minutes at 14000 rpm. The supernatant of 200 μL was added to 96-well plate for LC-MS/MS analysis.
The pharmacokinetic parameters of the test compounds were calculated using the non-compartment model of WinNonlin v5.2, a software for pharmacokinetic calculation, based on the data of plasma concentration.

PDE4A1A = biological target: T2, PDE4A1A (Homo sapiens, UniProt P27815); assay: PDE4 activity inhibition assay, PDE4A1A; assay type: biochemical; conditions: FAM-cAMP substrate, 30 minutes at room temperature
T2 construct: purchased BPS 60040
Method: as §1, §2, §3, §4, §5, §6

PDE4D3 = biological target: T3, PDE4D3 (Homo sapiens, UniProt Q08499); assay: PDE4 activity inhibition assay, PDE4D3; assay type: biochemical; conditions: FAM-cAMP substrate, 30 minutes at room temperature
T3 construct: purchased BPS 60046
Method: as §1, §2, §3, §4, §5, §6

[2] = po, intragastrical administration 10 mg/kg
[3] = po, intragastrical administration 10 mg/kg, read-out: AUC(po)
[4] = po, intragastrical administration 10 mg/kg, read-out: T1/2(po) (converted)
[5] = intravenous injection 3 mg/kg, read-out: AUC(iv)
[6] = intravenous injection 3 mg/kg, read-out: T1/2 (IV) (converted)

T2 sequence (P27815 1-647 isoform P27815-4): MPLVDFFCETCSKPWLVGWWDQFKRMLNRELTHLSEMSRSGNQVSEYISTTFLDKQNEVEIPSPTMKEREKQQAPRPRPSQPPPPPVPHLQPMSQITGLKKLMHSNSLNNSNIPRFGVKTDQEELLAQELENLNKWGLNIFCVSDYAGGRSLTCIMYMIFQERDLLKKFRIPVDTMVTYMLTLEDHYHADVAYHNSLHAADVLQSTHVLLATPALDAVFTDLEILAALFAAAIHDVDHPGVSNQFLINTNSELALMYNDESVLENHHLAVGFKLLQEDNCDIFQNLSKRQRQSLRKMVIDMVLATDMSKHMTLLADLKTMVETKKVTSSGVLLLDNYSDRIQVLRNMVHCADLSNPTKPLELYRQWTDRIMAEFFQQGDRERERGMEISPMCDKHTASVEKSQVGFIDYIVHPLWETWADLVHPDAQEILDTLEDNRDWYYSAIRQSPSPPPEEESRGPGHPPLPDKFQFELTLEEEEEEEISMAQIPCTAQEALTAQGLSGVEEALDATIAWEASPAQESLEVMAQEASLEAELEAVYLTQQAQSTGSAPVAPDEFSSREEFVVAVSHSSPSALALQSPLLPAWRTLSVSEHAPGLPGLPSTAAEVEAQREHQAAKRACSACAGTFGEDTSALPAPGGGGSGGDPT
T1 sequence (Q07343 whole entry): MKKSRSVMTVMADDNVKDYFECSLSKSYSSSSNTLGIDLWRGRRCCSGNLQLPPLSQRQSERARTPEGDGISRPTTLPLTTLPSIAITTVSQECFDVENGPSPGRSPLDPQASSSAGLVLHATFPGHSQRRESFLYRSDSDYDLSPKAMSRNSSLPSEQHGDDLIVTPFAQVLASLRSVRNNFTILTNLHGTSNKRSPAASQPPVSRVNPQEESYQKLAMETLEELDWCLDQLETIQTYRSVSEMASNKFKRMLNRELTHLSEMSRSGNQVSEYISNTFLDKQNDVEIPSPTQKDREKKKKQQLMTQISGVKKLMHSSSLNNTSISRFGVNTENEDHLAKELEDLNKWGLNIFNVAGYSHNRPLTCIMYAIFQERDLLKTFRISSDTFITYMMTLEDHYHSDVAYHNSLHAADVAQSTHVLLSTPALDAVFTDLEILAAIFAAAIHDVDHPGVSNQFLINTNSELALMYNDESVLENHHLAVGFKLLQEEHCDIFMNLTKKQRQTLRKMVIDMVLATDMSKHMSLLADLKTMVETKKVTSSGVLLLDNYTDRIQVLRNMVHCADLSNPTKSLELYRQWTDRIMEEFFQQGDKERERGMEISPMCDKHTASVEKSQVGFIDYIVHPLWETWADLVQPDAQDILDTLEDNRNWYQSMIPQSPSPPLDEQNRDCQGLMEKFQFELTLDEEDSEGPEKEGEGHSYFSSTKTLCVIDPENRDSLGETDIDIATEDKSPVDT
T3 sequence (Q08499 1-673 isoform Q08499-2): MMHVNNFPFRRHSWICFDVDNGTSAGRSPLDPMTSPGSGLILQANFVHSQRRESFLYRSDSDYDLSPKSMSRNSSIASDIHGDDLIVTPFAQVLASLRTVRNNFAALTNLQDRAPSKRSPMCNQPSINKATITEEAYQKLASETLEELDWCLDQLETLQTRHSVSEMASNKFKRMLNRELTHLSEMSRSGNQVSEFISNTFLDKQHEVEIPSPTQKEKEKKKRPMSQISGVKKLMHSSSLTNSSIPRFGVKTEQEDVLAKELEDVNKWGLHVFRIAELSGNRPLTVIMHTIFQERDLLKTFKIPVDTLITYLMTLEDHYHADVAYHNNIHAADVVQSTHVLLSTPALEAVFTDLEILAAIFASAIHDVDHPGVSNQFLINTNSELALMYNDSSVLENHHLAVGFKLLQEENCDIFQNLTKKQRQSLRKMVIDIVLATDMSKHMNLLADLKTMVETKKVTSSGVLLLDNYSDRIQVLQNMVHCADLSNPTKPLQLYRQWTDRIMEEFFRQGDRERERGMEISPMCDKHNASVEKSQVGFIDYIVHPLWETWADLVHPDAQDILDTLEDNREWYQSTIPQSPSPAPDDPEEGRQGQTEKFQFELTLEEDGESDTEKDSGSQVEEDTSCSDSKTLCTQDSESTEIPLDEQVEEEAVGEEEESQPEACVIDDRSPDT

IC50 (PDE4B1)	Tmax [1, 2]	AUC [1, 3]	half-life [1, 4]	AUC [1, 5]	half-life [1, 6]	F [1]	IC50 (PDE4A1A)	IC50 (PDE4D3)	Compound
4.7 nM	40.2 min	1050 ng·h/mL	392 min	1330 ng·h/mL	22.8 min	15.5	2.2 nM	4 nM	CCOc1nc([C@@H](CS(C)(=O)=O)N2C(=O)c3cccc(NC(C)=O)c3C2=O)ccc1OC [Compound 702, (S)—N-(2-(1-(6-ethoxy-5-methoxypyridin-2-yl)-2-(methylsulfonyl)ethyl)-1,3-dioxoisoindolin-4-yl)acetamide]
	60 min	785 ng·h/mL	56.4 min	1050 ng·h/mL	28.2 min	22.5			CCOc1cc([C@@H](CS(C)(=O)=O)N2C(=O)c3cccc(NC(C)=O)c3C2=O)ccc1OC [Reference compound 2, reference compound]
12.8 nM	120 min	4120 ng·h/mL	230 min	1260 ng·h/mL	63 min	98.2	7.25 nM	3.7 nM	[2H]C([2H])([2H])Oc1ccc([C@@H](CS(C)(=O)=O)N2C(=O)c3c(F)ccc(NC(C)=O)c3C2=O)cc1OCC [Compound 103, (S)—N-(2-(1-(3-ethoxy-4-d3-methoxyphenyl)-2-(methylsulfonyl)ethyl)-7-fluoro-1,3-dioxoisoindolin-4-yl)acetamide]
1.6 nM	30 min	3590 ng·h/mL	555 min	1340 ng·h/mL	55.2 min	80.2	0.58 nM	0.53 nM	CCOc1nc([C@@H](CS(C)(=O)=O)N2C(=O)c3c(F)ccc(NC(C)=O)c3C2=O)ccc1OC [Compound 705, (S)—N-(2-(1-(6-ethoxy-5-methoxypyridin-2-yl)-2-(methylsulfonyl)ethyl)-7-fluoro-1,3-dioxoisoindolin-4-yl)acetamide]
5.1 nM	40.2 min	51 ng·h/mL	253 min	945 ng·h/mL	32.4 min	1.62	3.1 nM	1.6 nM	CCOc1nc([C@@H](CS(C)(=O)=O)N2C(=O)c3cc(F)cc(NC(C)=O)c3C2=O)ccc1OC [Compound 708, (S)—N-(2-(1-(6-ethoxy-5-methoxypyridin-2-yl)-2-(methylsulfonyl)ethyl)-6-fluoro-1,3-dioxoisoindolin-4-yl)acetamide]
31 nM	30 min	250 ng·h/mL	52.2 min	1010 ng·h/mL	57 min	7.4	22 nM	18 nM	[2H]C([2H])([2H])Oc1ccc([C@@H](CS(C)(=O)=O)N2C(=O)c3cc(F)cc(NC(C)=O)c3C2=O)cc1OCC [Compound 203, (S)—N-(2-(l-(3-ethoxy-4-d3-methoxyphenyl)-2-(methylsulfonyl)ethyl)-6-fluoro-1,3-dioxoisoindolin-4-yl)acetamide]
157 nM							133 nM	83 nM	[2H]C([2H])([2H])Oc1ccc([C@H](CS(C)(=O)=O)N2C(=O)c3cc(F)cc(NC(C)=O)c3C2=O)cc1OCC [Compound 204, (R)—N-(2-(1-(3-ethoxy-4-d3-methoxyphenyl)-2-(methylsulfonyl)ethyl)-6-fluoro-1,3-dioxoisoindolin-4-yl)acetamide]
70 nM							53 nM	31 nM	[2H]C([2H])([2H])Oc1ccc([C@H](CS(C)(=O)=O)N2C(=O)c3c(F)ccc(NC(C)=O)c3C2=O)cc1OCC [Compound 104, (R)—N-(2-(1-(3-ethoxy-4-d3-methoxyphenyl)-2-(methylsulfonyl)ethyl)-7-fluoro-1,3-dioxoisoindolin-4-yl)acetamide]
1.6 nM							0.6 nM	0.4 nM	CCOc1nc(C(CS(C)(=O)=O)N2C(=O)c3c(Cl)ccc(NC(C)=O)c3C2=O)ccc1OC (stereo not drawn) [Compound 728, N-(7-chloro-2-(1-(6-ethoxy-5-methoxypyridin-2-yl)-2-(methylsulfonyl)ethyl)-1,3-dioxoisoindolin-4-yl)acetamide]

— patent publication US11337964B2, “Isoindoline derivative, pharmaceutical composition and use thereof” (Kangpu Biopharmaceuticals, Ltd., priority 2017, dated 2022)
